Data: publication PMC10233829 (ACS Omega, 2023)
In brackets after ≈: the same amount, converted by molar mass.

Columns and labels:
S. aureus NCTC 4163 = assay: MIC, twofold microdilution, standard strain; assay type: cell-based; conditions: Staphylococcus aureus, NCTC4163, 18 h
S. aureus ATCC 25923 = assay: MIC, twofold microdilution, standard strain; assay type: cell-based; conditions: Staphylococcus aureus, ATCC25923, 18 h
S. aureus ATCC 6538 = assay: MIC, twofold microdilution, standard strain; assay type: cell-based, Staphylococcus aureus; conditions: Staphylococcus aureus, ATCC6538; standard strain, 18 h
S. aureus ATCC 29213 = assay: MIC, twofold microdilution, standard strain; assay type: cell-based; conditions: Staphylococcus aureus, ATCC29213, 18 h
[1] = test system: S. epidermidis ATCC 12228; assay: MIC, twofold microdilution, standard strain; assay type: cell-based; conditions: Staphylococcus epidermidis, ATCC12228, 18 h
[2] = test system: S. epidermidis ATCC 35984; assay: MIC, twofold microdilution, standard strain; assay type: cell-based; conditions: Staphylococcus epidermidis, ATCC35984, 18 h
P. aeruginosa ATCC 15442 = assay: MIC, twofold microdilution, standard strain; assay type: cell-based, Pseudomonas aeruginosa; conditions: Pseudomonas aeruginosa, ATCC15442; standard strain, 18 h
E. coli ATCC 25922 = assay: MIC, twofold microdilution, standard strain; assay type: cell-based, Escherichia coli; conditions: Escherichia coli, ATCC25922; standard strain, 18 h
S. aureus 180 = assay: MIC, twofold microdilution, clinical strain; assay type: cell-based; conditions: Staphylococcus aureus, 18 h
S. aureus 5595 = assay: MIC, twofold microdilution, clinical strain; assay type: cell-based; conditions: Staphylococcus aureus, 18 h
S. aureus T5595 = assay: MIC, twofold microdilution, clinical strain; assay type: cell-based, Staphylococcus aureus; conditions: for MIC S. aureus T5595: 18 h; for MIC: Staphylococcus aureus, T5595, 18 h
S. aureus T5591 = assay: MIC, twofold microdilution, clinical strain; assay type: cell-based, Staphylococcus aureus; conditions: for MIC S. aureus T5591: 18 h; for MIC: Staphylococcus aureus, T5591, 18 h
S. epidermidis 4341 = assay: MIC, twofold microdilution, clinical strain; assay type: cell-based; conditions: Staphylococcus epidermidis, 18 h
S. epidermidis 5253 = assay: MIC, twofold microdilution, clinical strain; assay type: cell-based, Staphylococcus epidermidis; conditions: for MIC: Staphylococcus epidermidis, 5253, 18 h
S. epidermidis KR4243/1 = assay: MIC, twofold microdilution, clinical strain; assay type: cell-based; conditions: Staphylococcus epidermidis, 18 h
S. pasteuri KR 4358 = assay: MIC, twofold microdilution, clinical strain; assay type: cell-based; conditions: Staphylococcus pasteuri, KR4358, 18 h
P. aeruginosa 37 = assay: MIC, twofold microdilution, clinical strain; assay type: cell-based; conditions: Pseudomonas aeruginosa, 18 h
P. aeruginosa 659 = assay: MIC, twofold microdilution, clinical strain; assay type: cell-based; conditions: Pseudomonas aeruginosa, 18 h
E. coli 951 = assay: MIC, twofold microdilution, clinical strain; assay type: cell-based; conditions: Escherichia coli, 18 h
E. coli 520 = assay: MIC, twofold microdilution, clinical strain; assay type: cell-based; conditions: Escherichia coli, 18 h
E. coli 600 = assay: MIC, twofold microdilution, clinical strain; assay type: cell-based, Escherichia coli; conditions: Escherichia coli, 600, 18 h
E. cloacae 8 = assay: MIC, twofold microdilution, clinical strain; assay type: cell-based, Escherichia cloacae; conditions: for MIC: Enterobacter cloacae, 8, clinical strain, 18 h
K. pneumoniae 28 = assay: MIC, twofold microdilution, clinical strain; assay type: cell-based; conditions: Klebsiella pneumoniae, 18 h
K. pneumoniae 510 = assay: MIC, twofold microdilution, clinical strain; assay type: cell-based, Klebsiella pneumoniae; conditions: Klebsiella pneumoniae, 510; clinical strain, 18 h
M. tuberculosis H37Rv = assay: Tuberculostatic activity, Microplate Alamar Blue Assay (MIC); assay type: cell-based, Mycobacterium tuberculosis; set-up: concentration with growth inhibition as good as RMP and SM or EMB: unit not given here; conditions: for MIC: Mycobacterium tuberculosis, H37RV, MABA, read-out: MIC M. tuberculosis H37Rv
[3] = test system: M. tuberculosis Spec. 192; assay: as above; assay type: cell-based; conditions: Mycobacterium tuberculosis, MABA, read-out: MIC M. tuberculosis Spec. 192 (sensitive to tuberculostatics)
PC3 cells = assay: MTT assay, cytotoxic activity; assay type: cell-based, human; conditions: MTT, 72 h
Procedure, shortened: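 PC3 cells were grown at 37 °C/5% CO2 and exposed to test compounds. Viability came from MTT reduction, as test absorbance over untreated-control absorbance × 100%.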

[4] = MTT assay, cytotoxic activity; assay type: cell-based; conditions: human, HaCaT cells (immortal keratinocytes); MTT, 72 h, normal cell line; read-out: IC50 HaCaT
Procedure, shortened: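 MTT assay on cells grown at 37 °C/5% CO2. Viability is expressed as relative MTT reduction: test absorbance divided by untreated-control absorbance, ×100%.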

[5] = test system: Staphylococci (standard strains); assay: MIC, standard Gram-positive strains as a panel; assay type: cell-based, S. aureus, S. epidermidis
[6] = test system: clinical bacterial strains; assay: MIC, clinical isolates as groups of strains; assay type: cell-based; conditions: for times more powerful than CP: S. aureus T5595 and T5591; for MIC: clinical strains, read-out: MIC against selected E. coli and E. cloacae strains

| SMILES | MIC (S. aureus NCTC 4163) | MIC (S. aureus ATCC 25923) | MIC (S. aureus ATCC 6538) | MIC (S. aureus ATCC 29213) | MIC [1] | MIC [2] | MIC (P. aeruginosa ATCC 15442) | MIC (E. coli ATCC 25922) | MIC (S. aureus 180) | MIC (S. aureus 5595) | MIC S. aureus T5595 (S. aureus T5595) | MIC (S. aureus T5595) | MIC S. aureus T5591 (S. aureus T5591) | MIC (S. aureus T5591) | MIC (S. epidermidis 4341) | MIC (S. epidermidis 5253) | MIC (S. epidermidis KR4243/1) | MIC (S. pasteuri KR 4358) | MIC (P. aeruginosa 37) | MIC (P. aeruginosa 659) | further results |
| --- | --- | --- | --- | --- | --- | --- | --- | --- | --- | --- | --- | --- | --- | --- | --- | --- | --- | --- | --- | --- | --- |
| O=C(O)c1cn(C2CC2)c2cc(N3CCN(C(=O)C4CC4)CC3)c(F)cc2c1=O [Compound 2, 7-(4-Cyclopropanecarbonyl-piperazin-1-yl)-1-cyclopropyl-6-fluoro-4-oxo-1,4-dihydro-quinoline-3-carboxylic Acid] | 0.1 µg/mL (≈ 0.25 µM) | 0.2 µg/mL (≈ 0.501 µM) | 0.1 µg/mL (≈ 0.25 µM) | 0.1 µg/mL (≈ 0.25 µM) | 0.1 µg/mL (≈ 0.25 µM) | 0.1 µg/mL (≈ 0.25 µM) | 0.8 µg/mL (≈ 2 µM) | 0.05 µg/mL (≈ 0.125 µM) | 0.4 µg/mL (≈ 1 µM) | 0.4 µg/mL (≈ 1 µM) | 0.2 µg/mL (≈ 0.501 µM) | 0.1 to 0.2 µg/mL (≈ 0.25 to 0.501 µM) | 0.2 µg/mL (≈ 0.501 µM) | 0.1 to 0.2 µg/mL (≈ 0.25 to 0.501 µM) | 12.8 µg/mL (≈ 32 µM) | 12.8 to 25.6 µg/mL (≈ 32 to 64.1 µM) | 0.2 µg/mL (≈ 0.501 µM) | 0.2 µg/mL (≈ 0.501 µM) | 12.8 µg/mL (≈ 32 µM) | 6.4 µg/mL (≈ 16 µM) | MIC S. epidermidis 5253 (S. epidermidis 5253; 18 h): 25.6 µg/mL (≈ 64.1 µM); MIC (E. coli 951): 6.4 µg/mL (≈ 16 µM); MIC (E. coli 520): 0.2 µg/mL (≈ 0.501 µM); MIC (E. coli 600): 0.2 µg/mL (≈ 0.501 µM); MIC times lower than CP alone (E. cloacae 8; E. cloacae isolate): 1.2 times; MIC (E. cloacae 8): 0.05 µg/mL (≈ 0.125 µM); MIC (K. pneumoniae 28): > 25.6 µg/mL; MIC (K. pneumoniae 510): 25.6 µg/mL (≈ 64.1 µM); concentration with growth inhibition as good as RMP and SM or EMB (M. tuberculosis H37Rv; M. tuberculosis H37Rv): 1–2; MIC (M. tuberculosis H37Rv): 1 µg/mL (≈ 2.5 µM); MIC [3]: 0.5 µg/mL (≈ 1.25 µM); IC50 (PC3 cells; Homo sapiens, PC-3, 72 h): 85.2 ± 8.2 µM; IC50 at 72 h [4]: 75.7 ± 7.5 µM; MIC ([5]; read-out: MIC toward standard Staphylococci (range over strains)): 0.05 to 0.4 µg/mL (≈ 0.125 to 1 µM); fold more active than CP toward standard Staphylococci ([5]; standard Gram-positive strains of Table 1): 1.25–10 fold; times more powerful than CP [6]: 1.25–2.5 times; MIC [6]: 0.1 to 0.8 µg/mL (≈ 0.25 to 2 µM) |
| O=C(O)c1cn(C2CC2)c2cc(N3CCN(C(=O)CCl)CC3)c(F)cc2c1=O [Compound 3, 7-[4-(2-Chloroacetyl)-piperazin-1-yl]-1-cyclopropyl-6-fluoro-4-oxo-1,4-dihydro-quinoline-3-carboxylic Acid] | 0.1 µg/mL (≈ 0.245 µM) | 0.2 µg/mL (≈ 0.49 µM) | 0.2 µg/mL (≈ 0.49 µM) | 0.2 µg/mL (≈ 0.49 µM) | 0.2 µg/mL (≈ 0.49 µM) | 0.1 µg/mL (≈ 0.245 µM) | 6.4 µg/mL (≈ 15.7 µM) | 0.2 µg/mL (≈ 0.49 µM) | 0.4 µg/mL (≈ 0.981 µM) | 0.4 µg/mL (≈ 0.981 µM) | 0.2 µg/mL (≈ 0.49 µM) | 0.1 to 0.2 µg/mL (≈ 0.245 to 0.49 µM) | 0.1 µg/mL (≈ 0.245 µM) | 0.1 to 0.2 µg/mL (≈ 0.245 to 0.49 µM) | 12.8 µg/mL (≈ 31.4 µM) | > 25.6 µg/mL | 0.2 µg/mL (≈ 0.49 µM) | 0.2 µg/mL (≈ 0.49 µM) | > 25.6 µg/mL | > 25.6 µg/mL | MIC (E. coli 951): > 25.6 µg/mL; MIC (E. coli 520): 0.4 µg/mL (≈ 0.981 µM); MIC (E. coli 600): 0.4 µg/mL (≈ 0.981 µM); MIC (E. cloacae 8): 0.8 µg/mL (≈ 1.96 µM); MIC (K. pneumoniae 28): > 25.6 µg/mL; MIC (K. pneumoniae 510): 25.6 µg/mL (≈ 62.8 µM); MIC (M. tuberculosis H37Rv): 4 µg/mL (≈ 9.81 µM); MIC [3]: 2 µg/mL (≈ 4.9 µM); IC50 (PC3 cells; Homo sapiens, PC-3, 72 h): 2.02 to 4.8 µM; IC50 (PC3 cells): 2.02 ± 0.1 µM; IC50 at 72 h [4]: 35.7 ± 8.2 µM; times more powerful than CP [6]: 1.25–2.5 times; MIC [6]: 0.1 to 0.8 µg/mL (≈ 0.245 to 1.96 µM) |
